According to the NIST ThermoML archive (doi:10.1016/j.jct.2008.10.010):
± gives the expanded uncertainty stated by the source.

Experiments:
[1] = molar heat capacity at constant pressure; conditions: 101.33 kPa, Liquid, Small sample (50 mg) DSC
[2] = refractive index (Na D-line) (dimensionless); conditions: 298.15 K; 101.33 kPa; Liquid; Standard Abbe refractometry
[3] = 298.15 K; 101.33 kPa; Liquid; Pycnometric method

Q: Which “molar heat capacity at constant pressure” value ([1]; 284.14 K) does the source give for `CCC(C)(C)O` [2-methylbutan-2-ol] here?
A: The value was 233.4 ± 3.6 J/K/mol.

Q: What about the “molar heat capacity at constant pressure” value ([1]; 285.15 K) of the same compound?
A: Its value is 234.44 ± 3.6 J/K/mol.

Q: And the “molar heat capacity at constant pressure” value ([1]; 286.16 K)?
A: Its value is 235.36 ± 3.6 J/K/mol.

Q: And the “molar heat capacity at constant pressure” value ([1]; 287.14 K)?
A: Its value is 236.15 ± 3.7 J/K/mol.

Q: And the “molar heat capacity at constant pressure” value ([1]; 288.15 K)?
A: The value was 237.23 ± 3.7 J/K/mol.

Q: What about the “molar heat capacity at constant pressure” value ([1]; 289.14 K) of the same compound?
A: Its value is 238.19 ± 3.7 J/K/mol.

Q: And the “molar heat capacity at constant pressure” value ([1]; 290.14 K)?
A: The value was 239.11 ± 3.7 J/K/mol.

Q: What about the “molar heat capacity at constant pressure” value ([1]; 291.15 K) of the same compound?
A: Its value is 240.18 ± 3.7 J/K/mol.

Q: And the “molar heat capacity at constant pressure” value ([1]; 292.14 K)?
A: The value was 241.19 ± 3.7 J/K/mol.

Q: And the “molar heat capacity at constant pressure” value ([1]; 293.14 K)?
A: The value was 242.22 ± 3.8 J/K/mol.

Q: And the “molar heat capacity at constant pressure” value ([1]; 294.15 K)?
A: Its value is 243.25 ± 3.8 J/K/mol.

Q: What about the “molar heat capacity at constant pressure” value ([1]; 295.14 K) of the same compound?
A: The value was 244.25 ± 3.8 J/K/mol.

Q: And the “molar heat capacity at constant pressure” value ([1]; 296.14 K)?
A: Its value is 245.3 ± 3.8 J/K/mol.

Q: And the “molar heat capacity at constant pressure” value ([1]; 297.15 K)?
A: Its value is 246.36 ± 3.8 J/K/mol.

Q: What about the “molar heat capacity at constant pressure” value ([1]; 298.14 K) of the same compound?
A: The value was 247.43 ± 3.8 J/K/mol.

Q: And the “molar heat capacity at constant pressure” value ([1]; 298.15 K)?
A: Its value is 247.44 ± 3.8 J/K/mol.

Q: What about the “molar heat capacity at constant pressure” value ([1]; 298.16 K) of the same compound?
A: The value was 247.45 ± 3.8 J/K/mol.

Q: What about the “molar heat capacity at constant pressure” value ([1]; 299.14 K) of the same compound?
A: Its value is 248.43 ± 3.9 J/K/mol.

Q: What about the “molar heat capacity at constant pressure” value ([1]; 300.15 K) of the same compound?
A: The value was 249.45 ± 3.9 J/K/mol.

Q: What about the “molar heat capacity at constant pressure” value ([1]; 301.14 K) of the same compound?
A: Its value is 250.56 ± 3.9 J/K/mol.

Q: What about the “molar heat capacity at constant pressure” value ([1]; 302.14 K) of the same compound?
A: The value was 251.71 ± 3.9 J/K/mol.

Q: What about the “molar heat capacity at constant pressure” value ([1]; 303.15 K) of the same compound?
A: The value was 252.8 ± 3.9 J/K/mol.

Q: And the “molar heat capacity at constant pressure” value ([1]; 304.14 K)?
A: The value was 253.86 ± 3.9 J/K/mol.

Q: And the “molar heat capacity at constant pressure” value ([1]; 305.14 K)?
A: Its value is 255.01 ± 4 J/K/mol.

Q: And the “molar heat capacity at constant pressure” value ([1]; 306.15 K)?
A: Its value is 256.09 ± 4 J/K/mol.

Q: And the “molar heat capacity at constant pressure” value ([1]; 307.16 K)?
A: Its value is 257.16 ± 4 J/K/mol.

Q: What about the “molar heat capacity at constant pressure” value ([1]; 308.14 K) of the same compound?
A: The value was 258.22 ± 4 J/K/mol.

Q: And the “molar heat capacity at constant pressure” value ([1]; 309.15 K)?
A: Its value is 259.29 ± 4 J/K/mol.

Q: And the “molar heat capacity at constant pressure” value ([1]; 310.16 K)?
A: Its value is 260.36 ± 4 J/K/mol.

Q: And the “molar heat capacity at constant pressure” value ([1]; 311.14 K)?
A: Its value is 261.32 ± 4 J/K/mol.

Q: What about the “molar heat capacity at constant pressure” value ([1]; 312.15 K) of the same compound?
A: The value was 262.41 ± 4.1 J/K/mol.

Q: And the “molar heat capacity at constant pressure” value ([1]; 313.16 K)?
A: Its value is 263.51 ± 4.1 J/K/mol.

Q: What about the “molar heat capacity at constant pressure” value ([1]; 314.14 K) of the same compound?
A: The value was 264.5 ± 4.1 J/K/mol.

Q: And the “molar heat capacity at constant pressure” value ([1]; 315.15 K)?
A: Its value is 265.53 ± 4.1 J/K/mol.

Q: And the “molar heat capacity at constant pressure” value ([1]; 316.16 K)?
A: The value was 266.49 ± 4.1 J/K/mol.

Q: And the “molar heat capacity at constant pressure” value ([1]; 317.14 K)?
A: Its value is 267.5 ± 4.1 J/K/mol.

Q: What about the “molar heat capacity at constant pressure” value ([1]; 318.15 K) of the same compound?
A: The value was 268.57 ± 4.2 J/K/mol.

Q: And the “molar heat capacity at constant pressure” value ([1]; 319.15 K)?
A: Its value is 269.56 ± 4.2 J/K/mol.

Q: What about the “molar heat capacity at constant pressure” value ([1]; 320.14 K) of the same compound?
A: The value was 270.43 ± 4.2 J/K/mol.

Q: What about the “molar heat capacity at constant pressure” value ([1]; 321.15 K) of the same compound?
A: Its value is 271.49 ± 4.2 J/K/mol.

Q: What about the “molar heat capacity at constant pressure” value ([1]; 322.15 K) of the same compound?
A: The value was 272.37 ± 4.2 J/K/mol.

Q: What about the “molar heat capacity at constant pressure” value ([1]; 323.14 K) of the same compound?
A: Its value is 273.32 ± 4.2 J/K/mol.

Q: What about the “molar heat capacity at constant pressure” value ([1]; 324.15 K) of the same compound?
A: Its value is 274.25 ± 4.2 J/K/mol.

Q: What about the “molar heat capacity at constant pressure” value ([1]; 325.15 K) of the same compound?
A: The value was 275.15 ± 4.3 J/K/mol.

Q: What about the “molar heat capacity at constant pressure” value ([1]; 326.14 K) of the same compound?
A: Its value is 276.09 ± 4.3 J/K/mol.

Q: What about the “molar heat capacity at constant pressure” value ([1]; 327.15 K) of the same compound?
A: Its value is 276.89 ± 4.3 J/K/mol.

Q: And the “molar heat capacity at constant pressure” value ([1]; 328.15 K)?
A: The value was 277.86 ± 4.3 J/K/mol.

Q: What about the “molar heat capacity at constant pressure” value ([1]; 329.14 K) of the same compound?
A: Its value is 278.7 ± 4.3 J/K/mol.

Q: What about the “molar heat capacity at constant pressure” value ([1]; 330.14 K) of the same compound?
A: Its value is 279.59 ± 4.3 J/K/mol.

Q: And the “molar heat capacity at constant pressure” value ([1]; 331.15 K)?
A: The value was 280.35 ± 4.3 J/K/mol.

Q: And the “molar heat capacity at constant pressure” value ([1]; 332.14 K)?
A: The value was 281.18 ± 4.4 J/K/mol.

Q: What about the “molar heat capacity at constant pressure” value ([1]; 333.14 K) of the same compound?
A: Its value is 282.05 ± 4.4 J/K/mol.

Q: And the “molar heat capacity at constant pressure” value ([1]; 334.15 K)?
A: The value was 283 ± 4.4 J/K/mol.

Q: What about the “molar heat capacity at constant pressure” value ([1]; 335.14 K) of the same compound?
A: Its value is 283.68 ± 4.4 J/K/mol.

Q: And the “molar heat capacity at constant pressure” value ([1]; 336.14 K)?
A: The value was 284.35 ± 4.4 J/K/mol.

Q: And the “molar heat capacity at constant pressure” value ([1]; 337.15 K)?
A: The value was 285.19 ± 4.4 J/K/mol.

Q: What about the “molar heat capacity at constant pressure” value ([1]; 338.14 K) of the same compound?
A: Its value is 285.94 ± 4.4 J/K/mol.

Q: And the “molar heat capacity at constant pressure” value ([1]; 339.14 K)?
A: The value was 286.59 ± 4.4 J/K/mol.

Q: And the “molar heat capacity at constant pressure” value ([1]; 340.15 K)?
A: Its value is 287.37 ± 4.5 J/K/mol.

Q: What about the “molar heat capacity at constant pressure” value ([1]; 341.13 K) of the same compound?
A: Its value is 287.88 ± 4.5 J/K/mol.

Q: And the “molar heat capacity at constant pressure” value ([1]; 342.14 K)?
A: The value was 288.59 ± 4.5 J/K/mol.

Q: And the “molar heat capacity at constant pressure” value ([1]; 343.15 K)?
A: Its value is 289.15 ± 4.5 J/K/mol.

Q: What about the “molar heat capacity at constant pressure” value ([1]; 344.16 K) of the same compound?
A: Its value is 289.83 ± 4.5 J/K/mol.

Q: What about the “molar heat capacity at constant pressure” value ([1]; 345.14 K) of the same compound?
A: Its value is 290.42 ± 4.5 J/K/mol.

Q: And the “molar heat capacity at constant pressure” value ([1]; 346.15 K)?
A: Its value is 290.94 ± 4.5 J/K/mol.

Q: What about the “molar heat capacity at constant pressure” value ([1]; 347.16 K) of the same compound?
A: Its value is 291.42 ± 4.5 J/K/mol.

Q: What about the “molar heat capacity at constant pressure” value ([1]; 348.14 K) of the same compound?
A: The value was 292.03 ± 4.5 J/K/mol.

Q: What about the “molar heat capacity at constant pressure” value ([1]; 349.15 K) of the same compound?
A: The value was 292.61 ± 4.5 J/K/mol.

Q: And the “molar heat capacity at constant pressure” value ([1]; 350.16 K)?
A: The value was 293.03 ± 4.5 J/K/mol.

Q: What about the “molar heat capacity at constant pressure” value ([1]; 351.14 K) of the same compound?
A: Its value is 293.51 ± 4.5 J/K/mol.

Q: What about the “molar heat capacity at constant pressure” value ([1]; 352.15 K) of the same compound?
A: Its value is 293.87 ± 4.5 J/K/mol.

Q: What about the “molar heat capacity at constant pressure” value ([1]; 353.15 K) of the same compound?
A: The value was 294.39 ± 4.6 J/K/mol.

Q: What about the “molar heat capacity at constant pressure” value ([1]; 354.15 K) of the same compound?
A: The value was 294.87 ± 4.6 J/K/mol.

Q: What about the “molar heat capacity at constant pressure” value ([1]; 355.13 K) of the same compound?
A: Its value is 295.24 ± 4.6 J/K/mol.

Q: What about the “molar heat capacity at constant pressure” value ([1]; 356.14 K) of the same compound?
A: The value was 295.66 ± 4.6 J/K/mol.

Q: And the “molar heat capacity at constant pressure” value ([1]; 357.15 K)?
A: The value was 296.1 ± 4.6 J/K/mol.

Q: What about the “molar heat capacity at constant pressure” value ([1]; 358.15 K) of the same compound?
A: The value was 296.36 ± 4.6 J/K/mol.

Q: What about the “molar heat capacity at constant pressure” value ([1]; 359.14 K) of the same compound?
A: Its value is 296.72 ± 4.6 J/K/mol.

Q: And the “molar heat capacity at constant pressure” value ([1]; 360.15 K)?
A: Its value is 296.98 ± 4.6 J/K/mol.

Q: What about the “molar heat capacity at constant pressure” value ([1]; 361.15 K) of the same compound?
A: Its value is 297.18 ± 4.6 J/K/mol.

Q: And the “molar heat capacity at constant pressure” value ([1]; 362.15 K)?
A: The value was 297.48 ± 4.6 J/K/mol.

Q: And the “molar heat capacity at constant pressure” value ([1]; 363.14 K)?
A: The value was 297.69 ± 4.6 J/K/mol.

Q: What about the “molar heat capacity at constant pressure” value ([1]; 364.15 K) of the same compound?
A: Its value is 297.95 ± 4.6 J/K/mol.

Q: What about the “molar heat capacity at constant pressure” value ([1]; 365.15 K) of the same compound?
A: The value was 298.16 ± 4.6 J/K/mol.

Q: What about the “molar heat capacity at constant pressure” value ([1]; 366.14 K) of the same compound?
A: The value was 298.39 ± 4.6 J/K/mol.

Q: What about the “molar heat capacity at constant pressure” value ([1]; 367.15 K) of the same compound?
A: The value was 298.46 ± 4.6 J/K/mol.

Q: And the “molar heat capacity at constant pressure” value ([1]; 368.15 K)?
A: The value was 298.75 ± 4.6 J/K/mol.

Q: What about the “molar heat capacity at constant pressure” value ([1]; 368.76 K) of the same compound?
A: The value was 298.79 ± 4.6 J/K/mol.

Q: And the refractive index [2]?
A: The refractive index was 1.4025 ± 0.0008.

Q: What about the mass density [3] of the same compound?
A: The mass density was 804.32 ± 0.79 kg/m3.
